Consider seven compounds from US8883826B2, “Alkynyl derivatives as modulators of metabotropic glutamate receptors” (Addex Pharma SA, priority 2004, dated 2014).

One data set concerns the target T1, mGluR5 (Rattus norvegicus, UniProt P31424).
T1 construct: tissue Charles River Laboratories; host or cells: rat brain cortex membranes (Sprague-Dawley)
The experiment in a line: mGluR5 binding assay ([3H]-MPEP radioligand competition). The following applies: competition with 3 nM [3H]-MPEP, rat brain cortical membranes, 1 h at 4 °C; mean of at least three independent experiments in duplicate. The method in brief:
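Rat cortical membranes (50 μg) were incubated 1 h at 4 °C with 3 nM [3H]-MPEP and compound (0.003 nM-30 μM, 8 points) in HEPES buffer pH 7.4 with Mg2+, Ca2+ and NaCl. 30 μM MPEP defined non-specific binding, and bound label was counted after filtration. IC50 came from non-linear regression, as the mean of ≥3 experiments run in duplicate.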

The test system of a further data set is Male Sprague-Dawley rats. The experiment in a line: Vogel conflict drinking model of anxiety. Particulars: n=9-10/group. The format is in vivo, rat. An excerpt: Vogel Conflict Drinking Model of Anxiety in Rats
The Vogel conflict drinking model involves the conflict between thirst and receiving mild shocks for drinking water (punished drinking). Water-deprived rats are placed in a chamber and are periodically shocked for drinking water. The shocks suppress drinking and anxiolytics reverse this shock-induced suppression of drinking. The Vogel conflict drinking model was first proposed as a screening model for anxiolytics (Vogel, J. R. et al., Psychopharmacologia (Berl.), 21:1-7 (1971)) and is widely accepted as a robust model for testing the anxiolytic-like properties of compounds (Millan, M. J. and Brocco M., European Journal of Pharmacology, 463:67-96 (2003)).
Such compounds may be useful in the treatment of anxiety and related disorders. […]
The effect of compounds on drinking in the Vogel conflict drinking model in rats was tested. […] The number of punished drinks was counted automatically by the computer interface. […]
Statistical analyses were performed using GraphPad PRISM version 4.01 statistical software (GraphPad, San Diego, Calif., USA). Data were analyzed using one-way analysis of variance (ANOVA) followed by Bonferroni multiple comparisons. […]

A further data set relates to Male C57BL6/j mice. The experiment in a line: Marble burying model of anxiety. The following applies: 60 minutes prior to test, n=10/group. Format: in vivo, mouse. The source says: Marble Burying Model of Anxiety
Marble burying behavior in mice is reduced by compounds which are efficacious anxiolytics in humans. Thus, marble burying in mice has been used as a model for the prediction of anxiolytic-like effects of compounds (Millan, M. J. et al., Neuropharmacology, 42:677-684 (2002)).
Selective negative allosteric modulators (allosteric antagonists) of the metabotropic glutamate receptor subtype 5 (mGluR5) have been shown previously to reduce marble burying in mice (Spooren, W. P. et al., Journal of Pharmacology and Experimental Therapeutics, 295:1267-1275 (2000)). […] Such compounds may be useful in the treatment of anxiety and related disorders.
The present studies were performed in accordance with the animal care and use policies of Addex Pharmaceuticals and the EEC directives on the protection of animals used for experimental and other scientific purposes (86/609/EEC and subsequent revisions). […]
The effect of compounds on marble burying in mice was tested. […] After removal of the mice from the test cages, the number of marbles buried was counted. […]
Statistical analyses were performed using GraphPad PRISM version 4.01 statistical software (GraphPad, San Diego, Calif., USA). Data were analyzed using one-way analysis of variance (ANOVA) followed by Bonferroni-corrected multiple comparisons, or t tests if only 2 groups were present. […]

For orientation: IC50 means the midpoint of a concentration-inhibition curve. The term melting point denotes the temperature of the solid-liquid transition.

“Also recorded” adds a separate entry of the source. A value given as a limit tells only on which side of the number the result lay.

T1 sequence (P31424 21-1203): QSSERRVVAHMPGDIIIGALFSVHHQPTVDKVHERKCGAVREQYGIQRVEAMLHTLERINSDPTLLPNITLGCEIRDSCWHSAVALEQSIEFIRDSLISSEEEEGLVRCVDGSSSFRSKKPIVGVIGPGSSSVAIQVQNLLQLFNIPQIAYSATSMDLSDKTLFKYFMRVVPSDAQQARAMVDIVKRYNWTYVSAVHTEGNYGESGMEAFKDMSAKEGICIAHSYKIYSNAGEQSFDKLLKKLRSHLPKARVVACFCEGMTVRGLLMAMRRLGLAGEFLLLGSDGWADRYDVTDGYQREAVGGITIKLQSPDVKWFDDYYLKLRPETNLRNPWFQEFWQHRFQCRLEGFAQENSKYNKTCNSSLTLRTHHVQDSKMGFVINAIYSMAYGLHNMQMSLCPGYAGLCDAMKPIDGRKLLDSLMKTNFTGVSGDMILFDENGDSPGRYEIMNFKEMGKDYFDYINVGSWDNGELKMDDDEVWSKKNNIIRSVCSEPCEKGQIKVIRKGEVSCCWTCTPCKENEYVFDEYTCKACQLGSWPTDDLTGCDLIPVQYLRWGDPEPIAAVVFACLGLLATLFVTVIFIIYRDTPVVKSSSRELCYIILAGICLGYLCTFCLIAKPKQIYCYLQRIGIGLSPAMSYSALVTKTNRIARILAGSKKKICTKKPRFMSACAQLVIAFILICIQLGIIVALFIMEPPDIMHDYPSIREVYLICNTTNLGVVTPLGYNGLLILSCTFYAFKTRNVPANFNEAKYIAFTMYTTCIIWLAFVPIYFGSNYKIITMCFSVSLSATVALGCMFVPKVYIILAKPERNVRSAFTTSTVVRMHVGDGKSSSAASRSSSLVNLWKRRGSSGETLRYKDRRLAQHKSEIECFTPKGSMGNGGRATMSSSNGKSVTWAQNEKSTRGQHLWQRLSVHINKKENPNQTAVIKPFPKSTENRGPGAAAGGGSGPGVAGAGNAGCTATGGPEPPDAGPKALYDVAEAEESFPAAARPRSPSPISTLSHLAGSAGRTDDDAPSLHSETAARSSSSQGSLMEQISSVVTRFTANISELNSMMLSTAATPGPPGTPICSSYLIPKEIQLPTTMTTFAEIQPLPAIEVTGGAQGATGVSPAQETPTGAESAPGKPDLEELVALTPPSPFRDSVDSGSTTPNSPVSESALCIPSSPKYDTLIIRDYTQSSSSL

`Cl.FCc1cccc(C#CCCn2nc3ccccc3n2)n1` [Example 130, 2-(4-(6-(Fluoromethyl)pyridin-2-yl)but-3-ynyl)-2H-benzo[d][1,2,3]triazole hydrochloride] returned a melting point of 172.5 to 173.5 °C. This compound also yielded an IC50 at mGluR5 of less than 0.05 µM. Also, the “punished drinking in the Vogel conflict drinking test (vs vehicle)” value in the data set with Male Sprague-Dawley rats (30 mg/kg po, t(1, 17)=2.593, hydrochloride) is “significantly increases punished drinking; also recorded: took significantly more punished licks than vehicle injected controls”.

On to `O=C(CCC#Cc1ccccn1)Nc1ccc(Cl)cc1` [Example 244, N-(4-Chlorophenyl)-5-(pyridin-2-yl)pent-4-ynamide], for which the melting point is 110 to 111 °C. Further, the IC50 on mGluR5 was less than 10 µM.

Regarding `O=C(CCC#Cc1ccccn1)Nc1cccc(Cl)c1` [Example 245, N-(3-Chlorophenyl)-5-(pyridin-2-yl)pent-4-ynamide], the melting point was 167.8 to 168.8 °C. This compound returned an IC50 at mGluR5 of less than 10 µM.

In turn, `O=C(CCC#Cc1ccccn1)Nc1ccc(F)cc1F` [Example 246, N-(2,4-Difluorophenyl)-5-(pyridin-2-yl)pent-4-ynamide] had a melting point of 132 to 133.2 °C. The concentration for half-maximal inhibition (IC50) at mGluR5 was less than 10 µM.

`Fc1ccc(-c2cnn(CCC#Cc3ccccn3)n2)cc1` [Example 249, 2-(4-(4-(4-Fluorophenyl)-2H-1,2,3-triazol-2-yl)but-1-ynyl)pyridine] had a melting point of 83.5 to 84.5 °C. In addition, the half-inhibitory concentration (IC50) on mGluR5 is less than 10 µM.

For `Clc1cccn2cc(CCC#Cc3ccccn3)nc12` [Example 255, 8-Chloro-2-(4-(pyridin-2-yl)but-3-ynyl)-imidazo[1,2-a]pyridine], the melting point was 106 to 107 °C. This compound displayed a concentration for half-maximal inhibition (IC50) at mGluR5 of less than 0.05 µM. In addition, the “marble burying in mice (number of marbles buried vs vehicle)” value with Male C57BL6/j mice (50 mg/kg po, t (1, 18)=3.92) was “significantly attenuates marble burying; also recorded: buried significantly fewer marbles than vehicle-treated mice”.

`FCc1cccc(C#CCCc2cn3cccc(Cl)c3n2)n1` [Example 256, 8-Chloro-2-(4-(6-(fluoromethyl)pyridin-2-yl)but-3-ynyl)-imidazo[1,2-a]pyridine] returned a melting point of 73 to 74.5 °C. This compound came in with an IC50 at mGluR5 of less than 0.05 µM. For the same compound, in the data set on Male C57BL6/j mice (30 mg/kg po, t=3.686, p<0.01), the “marble burying in mice (number of marbles buried vs vehicle)” value is listed as “significantly attenuates marble burying; also recorded: buried fewer marbles than vehicle-treated mice”. For the same compound, in the data set on Male Sprague-Dawley rats (10 mg/kg po, t=3.585, p<0.01), the “punished drinking in the Vogel conflict drinking test (vs vehicle)” value is reported as “significantly increases punished drinking; also recorded: accepted significantly more shocks than vehicle-treated rats”.
